From publication PMC6345774, “Kinetic and thermodynamic effects of phosphorylation on p53 binding to MDM2” (Scientific Reports, 2019)

Experiments:
[1] = molecular target: T1, human MDM2 (residues 2–125) (Homo sapiens, UniProt Q00987); test: Isothermal titration calorimetry of p53-peptide binding to MDM2; conditions: ITC, 15 °C, 50 mM Tris-HCl pH 8.0, 250 mM NaCl, 0.5 mM TCEP; for ΔH of binding / Kd: peptide titrated into MDM2; for ΔH of binding: repeated twice; for Kd: read-out: Log KA (converted)
T1 construct: human MDM2 (residues 2–125); made in house; host or cells: E. coli BL21 (DE3)
T1 sequence (Q00987 2-125): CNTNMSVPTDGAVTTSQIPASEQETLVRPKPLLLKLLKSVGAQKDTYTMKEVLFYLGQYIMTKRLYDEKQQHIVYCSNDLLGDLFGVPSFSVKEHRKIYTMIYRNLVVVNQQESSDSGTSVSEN
Method: Protein concentration was determined from the absorbance of its seven Tyr residues.
Peptide binding to MDM2 was measured by using an Auto-iTC200 (Malvern Instruments, Malvern UK), as described[24],[37]. Data acquisition was carried out with a reference power of 10 µcal/s, initial delay of 60 s, spacing between injections of 150 s. In a typical ITC experiment, the p53 peptide was loaded into a 40 μl syringe and the protein was placed into the sample cell. The sequence of injections consisted of one 0.5 μl injection followed by 19 injections of 2 μl each. Control experiments loading peptide into buffer solution were also carried out for each peptide. Experiments were performed with freshly prepared protein solutions, at 15 °C in the same buffer used in fluorescence experiments. ITC experiments were performed at 15 °C rather than 25 °C to avoid aggregation of MDM2.
Each peak was integrated using NITPIC software. The areas of the peaks are related to the heat exchanged upon binding and/or dilution. This heat was corrected of the heat of dilution (i.e., the average heat of the injections after the equilibrium has reached the saturation). Titration with each peptide was repeated twice.

[2] = Far-UV CD of isolated peptides in aqueous solution (helicity); format: physicochemical; conditions: 5 °C, 50 mM phosphate pH 6.8; for molar ellipticity at 222 nm, [Θ]222: far-UV CD; for % Helix in water ([Θ]222): from molar ellipticity at 222 nm assuming 100% helix = −31500 deg cm^2 dmol^−1
Method: Spectra were acquired on a Jasco J815 spectropolarimeter (Jasco, Japan) interfaced with a Peltier unit. The instrument was periodically calibrated with (+) 10-camphorsulphonic acid. Far-UV measurements (in aqueous or TFE solutions) were performed in 0.1-cm-pathlength quartz cells (Hellma), with a response time of 2 s, a band width of 1 nm, data were collected every 0.2 nm, and a scan velocity of 50 nm/min (or 20 nm/min). […] In all peptides, two concentrations (10 μM and 70 μM) in aqueous solutions (50 mM sodium phosphate buffer, pH 6.8 […]) were used to determine whether either the shapes or the intensities of the spectra were concentration-dependent. […] In all cases (aqueous solution or TFE titrations), the corresponding blank solutions (containing only buffer, or buffer and the corresponding amount of TFE) were subtracted from the spectra.
(§1) For the TFE titrations, a peptide concentration of 40 μM was used. The samples were prepared the day before and left overnight at 5 °C to reach equilibrium. The experiments in aqueous solution were acquired at 5 °C, in 50 mM sodium phosphate buffer, pH 6.8. Raw ellipticity was converted to molar ellipiticity, [Θ], from which the percentage of helical populations was determined. Co-solvent concentrations were indicated in percentage of volume. […] Fitting of the titration curves, obtained by observation of the molar ellipticity at 222 nm as the TFE concentration was increased, was carried out with Kaleidagraph (Synergy software).

[3] = TFE titrations monitored by CD (helical population); format: physicochemical; conditions: 5 °C, 50 mM phosphate pH 6.8, peptide 40 μM; for [TFE]1/2 (midpoint of TFE titration) / m (m-value of TFE titration): CD at 222 nm, two-state fit, ± fitting error; for % Helix in water (from ΔG in TFE titrations): from ΔG = [TFE]1/2 × m, for 1% values the error was 10%
Method: Unlike the above programs, which make assumptions about how the ellipticity signal relates to secondary structure content, a TFE titration allows the determination of helical content derived from the free-energy change for the equilibrium between folded (in TFE) and unfolded peptide, without any such assumptions.
as §1

[4] = molecular target: T1, human MDM2 (residues 2–125); test: Stopped-flow fluorescence kinetics of p53-peptide binding to MDM2; conditions: 15 °C; for Kd: ratio of kinetic rate constants, assuming two-state binding without intermediates, read-out: Kd (koff/kon); for kon / koff: stopped-flow Trp fluorescence, 50 mM Tris-HCl pH 8.0, 250 mM NaCl, 0.5 mM TCEP, peptide 0.125 μM, ± fitting error; for kon: MDM2 1–3 μM, pseudo-first order, slope, read-out: kon 10^6; for koff: y-axis intercept of pseudo-first-order plot
Method: Expression and purification of human MDM2 (residues 2–125) was carried out as described[23] in BL21 (DE3) cells. […] Protein concentration was determined from the absorbance of its seven Tyr residues.
The kinetics of the MDM2/p53-peptide interaction was measured at 15 °C using an Applied Photophysics stopped-flow fluorimeter in the same buffer as that used in the equilibrium fluorescence experiments. The experimental procedure has been described previously. Association kinetics was measured under pseudo-first order conditions, by keeping the MDM2 concentration in excess of that of the peptide. […] Excitation wavelength was 280 nm with a cut-off filter of 315 nm on the emission side. The slit widths were 10 nm for excitation and emission.
At each MDM2 concentration a minimum of six traces were acquired; and the fitting in all cases for all peptides was carried out with the averaging of at least four traces. The averaged trace was always fitted to a single exponential function, which yielded, kobs. Fitting to a single exponential curve was carried out by using Kaleidagraph (Synergy Software); reported errors in kobs are from the exponential fitting. The dissociation (koff) and association (kon) rate constants were obtained from the straight line: kobs=kon×[MDM2]+koff.
Errors in both rates were from the linear fitting; the errors were always larger for koff due to the extrapolation to the y-axis intercept.

[5] = molecular target: T2, human MDM2 (residues 2–125) (human, UniProt Q00987 2-125); test: ITC; p53 peptide in the syringe titrated into MDM2 in the cell; Auto-iTC200; 15 °C; 50 mM Tris-HCl pH 8.0, 250 mM NaCl, 0.5 mM TCEP; conditions: both partners purified
T2 construct: MDM2 (murine double minute 2), human, N-terminal domain, residues 2-125; no tag is named; also called N-terminal domain of MDM2
T2 sequence (Q00987 2-125): as above

Molecule	TΔS of binding [1]	ΔH of binding [1]	molar ellipticity at 222 nm, [Θ]222 [2]	% Helix in water ([Θ]222) [2]	[TFE]1/2 (midpoint of TFE titration) [3]	m (m-value of TFE titration) [3]	% Helix in water (from ΔG in TFE titrations) [3]	other results
CC(=O)N[C@@H](CCC(=O)O)C(=O)N[C@@H](CC(=O)O)C(=O)N[C@@H](Cc1ccccc1)C(=O)N[C@@H](CC(=O)O)C(=O)N[C@@H](CC(=O)O)C(=O)N[C@@H](CC(C)C)C(=O)N[C@@H](Cc1c[nH]c2ccccc12)C(=O)N[C@@H](CCCCN)C(=O)N[C@@H](CC(C)C)C(=O)N[C@@H](CC(C)C)C(=O)N1CCC[C@H]1C(=O)N[C@@H](CCC(=O)O)C(=O)N[C@@H](CC(N)=O)C(N)=O [P53-D18-D20]	-3.96 kcal/mol	-9.95 kcal/mol	−2811 deg cm^2 dmol^−1	9%	9.8 ± 0.8 % (vol:vol)	263 ± 47 cal mol^−1(%)^−1	1%	–
CC(=O)N[C@@H](CCC(=O)O)C(=O)N[C@@H](CC(=O)O)C(=O)N[C@@H](Cc1ccccc1)C(=O)N[C@@H](CCC(=O)O)C(=O)N[C@@H](CC(=O)O)C(=O)N[C@@H](CC(C)C)C(=O)N[C@@H](Cc1c[nH]c2ccccc12)C(=O)N[C@@H](CCCCN)C(=O)N[C@@H](CC(C)C)C(=O)N[C@@H](CC(C)C)C(=O)N1CCC[C@H]1C(=O)N[C@@H](CCC(=O)O)C(=O)N[C@@H](CC(N)=O)C(N)=O [P53-D18-E20]	-3.03 kcal/mol	-9.90 kcal/mol	−3597 deg cm^2 dmol^−1	11.4%	33 ± 5 % (vol:vol)	112 ± 70 cal mol^−1(%)^−1	1%	Kd [1]: 5.89 µM
CC(=O)N[C@@H](CCC(=O)O)C(=O)N[C@@H](CC(=O)O)C(=O)N[C@@H](Cc1ccccc1)C(=O)N[C@@H](CO)C(=O)N[C@@H](CC(=O)O)C(=O)N[C@@H](CC(C)C)C(=O)N[C@@H](Cc1c[nH]c2ccccc12)C(=O)N[C@@H](CCCCN)C(=O)N[C@@H](CC(C)C)C(=O)N[C@@H](CC(C)C)C(=O)N1CCC[C@H]1C(=O)N[C@@H](CCC(=O)O)C(=O)N[C@@H](CC(N)=O)C(N)=O [P53-D18]	-12.19 kcal/mol	-18.39 kcal/mol	−3313 deg cm^2 dmol^−1	10.5%	12.0 ± 0.7 % (vol:vol)	383 ± 142 cal mol^−1(%)^−1	1%	Kd [4]: 5 ± 3 µM; kon [4]: 5e+06 ± 3e+06 M⁻¹ s⁻¹; koff [4]: 23 ± 9 s⁻¹; Kd [1]: 19.1 µM
CC(=O)N[C@@H](CCC(=O)O)C(=O)N[C@H](C(=O)N[C@@H](Cc1ccccc1)C(=O)N[C@@H](CC(=O)O)C(=O)N[C@@H](CC(=O)O)C(=O)N[C@@H](CC(C)C)C(=O)N[C@@H](Cc1c[nH]c2ccccc12)C(=O)N[C@@H](CCCCN)C(=O)N[C@@H](CC(C)C)C(=O)N[C@@H](CC(C)C)C(=O)N1CCC[C@H]1C(=O)N[C@@H](CCC(=O)O)C(=O)N[C@@H](CC(N)=O)C(N)=O)[C@@H](C)O [P53-D20]	–	–	−2811 deg cm^2 dmol^−1	9%	–	–	–	Kd [4]: 0.7 ± 0.2 µM; kon [4]: 9.5e+06 ± 900000 M⁻¹ s⁻¹; koff [4]: 7 ± 2 s⁻¹
CC(=O)N[C@@H](CCC(=O)O)C(=O)N[C@@H](CCC(=O)O)C(=O)N[C@@H](Cc1ccccc1)C(=O)N[C@@H](CO)C(=O)N[C@@H](CC(=O)O)C(=O)N[C@@H](CC(C)C)C(=O)N[C@@H](Cc1c[nH]c2ccccc12)C(=O)N[C@@H](CCCCN)C(=O)N[C@@H](CC(C)C)C(=O)N[C@@H](CC(C)C)C(=O)N1CCC[C@H]1C(=O)N[C@@H](CCC(=O)O)C(=O)N[C@@H](CC(N)=O)C(N)=O [P53-E18]	-0.26 kcal/mol	-7.02 kcal/mol	−2380 deg cm^2 dmol^−1	7.5%	14 ± 5 % (vol:vol)	103 ± 42 cal mol^−1(%)^−1	7 ± 1%	kon [4]: 3.8e+06 ± 700000 M⁻¹ s⁻¹; koff [4]: 16 ± 2 s⁻¹; Kd [1]: 7.08 µM
CC(=O)N[C@@H](CCC(=O)O)C(=O)N[C@H](C(=O)N[C@@H](Cc1ccccc1)C(=O)N[C@@H](COP(=O)(O)O)C(=O)N[C@@H](CC(=O)O)C(=O)N[C@@H](CC(C)C)C(=O)N[C@@H](Cc1c[nH]c2ccccc12)C(=O)N[C@@H](CCCCN)C(=O)N[C@@H](CC(C)C)C(=O)N[C@@H](CC(C)C)C(=O)N1CCC[C@H]1C(=O)N[C@@H](CCC(=O)O)C(=O)N[C@@H](CC(N)=O)C(N)=O)[C@@H](C)O [P53-pS]	–	–	−4614 deg cm^2 dmol^−1	14.6%	–	–	–	–
CC(=O)N[C@@H](CCC(=O)O)C(=O)N[C@H](C(=O)N[C@@H](Cc1ccccc1)C(=O)N[C@@H](COP(=O)(O)O)C(=O)N[C@@H](CC(=O)O)C(=O)N[C@@H](CC(C)C)C(=O)N[C@@H](Cc1c[nH]c2ccccc12)C(=O)N[C@@H](CCCCN)C(=O)N[C@@H](CC(C)C)C(=O)N[C@@H](CC(C)C)C(=O)N1CCC[C@H]1C(=O)N[C@@H](CCC(=O)O)C(=O)N[C@@H](CC(N)=O)C(N)=O)[C@@H](C)OP(=O)(O)O [P53-pTpS]	–	–	−2547 deg cm^2 dmol^−1	8.1%	–	–	–	–
Ac-EeFdDLWeeLPEN-NH2 [P53-E18-D20-E24-E25, p53 Glu17-Asn29 peptide with phosphomimetics at Thr18 and Ser20 and Lys24, Leu25 mutated to Glu]	–	–	142.7 deg cm^2 dmol^−1	0%	–	–	–	binding to MDM2 in stopped-flow kinetics ([4]; no exponential behaviour in any trace at any MDM2 concentration tested): did not show any evidence of binding
Ac-EDFSDLWKLLPEN-NH2 [Ac-EdFSDLWKLLPEN-NH2 (P53-D18)]	–	–	–	–	–	–	–	Kd [5]: 19 µM; Log KA [5]: 4.72; dH [5]: -18.4 kcal/mol
Ac-EDFDDLWKLLPEN-NH2 [Ac-EdFdDLWKLLPEN-NH2 (P53-D18-D20)]	–	–	–	–	–	–	–	dH [5]: -9.95 kcal/mol
Ac-EDFEDLWKLLPEN-NH2 [Ac-EdFeDLWKLLPEN-NH2 (P53-D18-E20)]	–	–	–	–	–	–	–	dH [5]: -9.9 kcal/mol
